Assay results published in US8993527B2, “Methods, compositions, and formulations for preventing or reducing adverse effects in a patient” (Pericor Therapeutics, Inc., priority 2005, dated 2015).
Counter-ions that a name gives are not always drawn. Values belong to the compound of their own block, whether it stands above or below them.

Legend:
[1] = molecular target: T1, calf intestinal musosa adenosine deaminase (Bos taurus, UniProt P56658); assay: Adenosine deaminase activity; type: biochemical; conditions: 80 μM adenosine, 10 minutes at 37° C.
T1 construct: 0.002 units of calf intestinal musosa adenosine deaminase; from tissue; host or cells: calf intestinal mucosa
T1 sequence (P56658 whole entry): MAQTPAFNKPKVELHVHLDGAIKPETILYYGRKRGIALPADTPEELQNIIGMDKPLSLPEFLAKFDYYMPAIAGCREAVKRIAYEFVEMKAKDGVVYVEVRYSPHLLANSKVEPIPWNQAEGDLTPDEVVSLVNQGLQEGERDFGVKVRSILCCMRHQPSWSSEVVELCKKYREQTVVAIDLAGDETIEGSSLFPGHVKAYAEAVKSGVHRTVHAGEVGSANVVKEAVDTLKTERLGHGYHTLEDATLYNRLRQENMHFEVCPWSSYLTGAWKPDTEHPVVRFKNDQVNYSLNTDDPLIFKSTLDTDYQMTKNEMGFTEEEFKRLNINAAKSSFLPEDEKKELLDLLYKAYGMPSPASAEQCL
Procedure: Different concentrations of the test compounds were incubated in the assay mixture for 10 minutes at 37° C. The reaction was monitored continuously for oxidation of NADH from the change in absorbance at 340 nm.

[2] = system: longitudinal muscle from the guinea pig ileum; assay: Inhibition of stimulated contraction in isolated ileum; conditions: electrically stimulated guinea pig ileum muscle
From the text: These are detailed in Table II.

[3] = system: platelet aggregation in human whole blood; assay: Inhibition of platelet aggregation in human whole blood; type: cell-based; conditions: Homo sapiens, Platelet, 10 min, 10 minutes at 37° C., 10 µM adenosine added, ADP (6-25 μM)
Procedure: Whole blood was drawn from healthy donors and collected in 0.1 vol. of sodium citrate to prevent coagulation. Platelet aggregation was measured by the impedance technique using a Whole Blood Aggregometer. The test compounds were incubated in whole blood for 10 minutes at 37° C. and 10 µM adenosine was added 5 minutes before eliciting aggregation. Aggregation was induced by addition of ADP (6-25 μM) at the minimum concentration inducing full aggregation in untreated controls.

[4] = system: coronary endothelial cells; assay: Inhibition of adenosine utilization in cell culture; type: cell-based; conditions: Endothelial cell, 1 μM [3H] adenosine, 15 minutes
Procedure: In this assay, endothelial cells were incubated with 5 μM or 50 μM of the test compound together with 1 μM [^3H] adenosine for 15 minutes. Inhibition of adenosine utilization was determined by measuring the concentration of extracellular adenosine by scintillation counting following separation by thin layer chromatography (TLC).

[5] = molecular target: T2, NBTI-specific adenosine transport site (UniProt O54698); assay: [3H]-NBTI binding assay; conditions: read-out: ED50 (50% displacement of bound [3H]-NBTI); 0.5 mg neuronal membrane protein, 0.5 nM [3H]-NBTI, 30 minutes
T2 sequence (O54698 1-457): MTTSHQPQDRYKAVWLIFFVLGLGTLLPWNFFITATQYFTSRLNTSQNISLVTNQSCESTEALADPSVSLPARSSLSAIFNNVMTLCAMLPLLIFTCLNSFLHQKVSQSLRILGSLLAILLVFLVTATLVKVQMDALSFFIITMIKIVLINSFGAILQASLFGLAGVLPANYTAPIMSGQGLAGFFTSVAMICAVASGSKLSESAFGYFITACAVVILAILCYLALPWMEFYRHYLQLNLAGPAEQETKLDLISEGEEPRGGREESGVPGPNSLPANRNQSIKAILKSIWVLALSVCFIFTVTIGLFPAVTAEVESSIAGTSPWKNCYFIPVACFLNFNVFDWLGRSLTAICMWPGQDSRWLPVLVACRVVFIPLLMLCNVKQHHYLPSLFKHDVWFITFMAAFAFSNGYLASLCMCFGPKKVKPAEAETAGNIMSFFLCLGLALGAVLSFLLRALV
Procedure: Increasing concentrations of the test compounds were incubated for 30 minutes with 0.5 mg neuronal membrane protein together with 0.5 nM [^3 H]-NBTI in a Tris buffer (pH 7.4) at room temperature. The assays were quenched and membranes collected by rapid filtration. Filters were then solubilized and radioactivity determined by scintillation counting.

demand-induced ischemia = assay: Canine model of stable angina (repeated pacing with LAD stenosis); type: in vivo, dog
Procedure: Anesthetized male dogs were instrumented to measure regional myocardial wall thickening during right atrial pacing in the presence of a stenosis of the left anterior descending artery (Young & Mullane Am. J. Physiol. in press (1991)). In Table XIA, the effects on wall thickening and arterial pressure of six repeated episodes of pacing in animals treated with a continuous IV infusion of 50 μg/kg/min of the test compound administered post-pace #1 are compared with saline-treated control animals.

[6] = Oral bioavailability and half-life in fasted adult beagles; type: in vivo, dog; conditions: beagle, dog, in vivo
Procedure: Heparinized blood and urine were collected at selected intervals over 24 hours. Each sample was chilled, centrifuged at 4° C. and frozen prior to HPLC analysis.

[7] = system: Mouse bone marrow-derived mast cells; assay: Ribavirin: mast cell β-hexosaminidase release
AMP deaminase = assay: Inhibition of AMP deaminase (14C-AMP to 14C-IMP); type: biochemical, human; conditions: 200 μM of each ribotide
Procedure: The phosphorylated forms are referred to as AICA ribotide and ribavirin monophosphate, respectively. Using 200 μM of each ribotide, AMP deaminase was inhibited 38% and 54%, respectively.

brain ischemia = assay: Gerbil stroke model: hippocampal pyramidal cell survival; type: in vivo; conditions: pretreatment with 500 mg/kg (FIG. 21)
Procedure: Ischemia was then induced by bilateral occlusion of both common carotid arteries for 5 minutes. Seven days following the ischemic insult, brains were removed and processed for histology.

[8] = system: granulocytes and endothelial cells; assay: Granulocyte/endothelial cell interaction, intravital microscopy of mesentery microvessels; type: in vivo, rat; conditions: superfusion with 20 μM, approximately 2 μM in the vessel
Procedure: The parameter measured was the fracture stress between the two cell types.
These studies were performed by intravital microscopy filming of granulocytes in rat mesentary microvessels. The rolling velocity of granulocytes compared to the streaming velocity of red cells was calculated before and after the administration of adenosine.

ischemic rat hearts = assay: Rat heart ischemia model: tissue adenosine levels; type: in vivo
Procedure: Male rats were injected intraperitonealy with either the AICA riboside analog, AICA riboside or saline, as a control. After 60 minutes, the hearts were excised and incubated at 37° C. for a further 60 minutes. Tissue extracts were prepared and analyzed for adenosine by high performance liquid chromatography (HPLC).

Compound: CCCCO[C@@H]1[C@H](O)[C@@H](CO)O[C@H]1n1cnc(C(N)=O)c1N [32 (1-262), 5-amino-1-(2-O-n-butyl-β-D-ribofuranosyl)imidazole-4-carboxamide]
IC50 [1]: 175 µM

Compound: NC(=O)c1ncn([C@@H]2O[C@H](CO)[C@@H](O)[C@H]2O)n1 [ribavirin, 1-β-D-ribofuranosyl-1H-1,2,4-triazole-3-carboxamide]
mediator release ([7]; 1 μM for six days): inhibits mediator release significantly | β-hexosaminidase release ([7]; 10 μM added at the time of mast cell stimulation): does not affect | β-hexosaminidase release ([7]; three to seven days in 10 μM, washed, A23187 challenge): marked attenuation

Compound: NC(=O)c1ncn([C@@H]2O[C@H](COP(=O)(O)O)[C@@H](O)[C@H]2O)c1N [AICA ribotide]
AMP deaminase inhibited (AMP deaminase): 38%

Compound: Nc1ncnc2c1ncn2[C@@H]1O[C@H](CO)[C@@H](O)[C@H]1O [Adenosine, 9-β-D-ribofuranosyladenine]
rolling velocity of granulocytes in microvessels [8]: twofold increase

Compound: NC(=O)c1ncn([C@@H]2O[C@H](COP(=O)(O)O)[C@@H](O)[C@H]2O)n1 [ribavirin monophosphate]
AMP deaminase inhibited (AMP deaminase): 54%

Second part, led by results:

IC50 ([2]; Cavia porcellus): 70 µM | IC50 [3]: 150 µM | EC50 [5]: ~100 µM | Mean Arterial Pressure (demand-induced ischemia; Baseline): 86 ± 5 mm Hg | Mean Arterial Pressure, Change from Baseline (demand-induced ischemia; Post Pace Rest Period 1): −1 ± 3 mm Hg | Mean Arterial Pressure, Change from Baseline (demand-induced ischemia; Post Pace Rest Period 2): −2 ± 3 mm Hg | Mean Arterial Pressure, Change from Baseline (demand-induced ischemia; Post Pace Rest Period 3): −8 ± 3 mm Hg | Mean Arterial Pressure, Change from Baseline (demand-induced ischemia; Post Pace Rest Period 4): −7 ± 3 mm Hg | Mean Arterial Pressure, Change from Baseline (demand-induced ischemia; Post Pace Rest Period 5): −8 ± 3 mm Hg | Mean Arterial Pressure, Change from Baseline (demand-induced ischemia; Post Pace Rest Period 6): −7 ± 3 mm Hg | half-life [6]: 5.61 h | bioavailability ([6]; po, 10 mg/kg IV bolus and 20 mg/kg via stomach tube, read-out: Absolute Oral Bioavailability %): 32 ± 11%
Compound: NC[C@H]1O[C@@H](n2cnc(C(=O)NCc3ccc(Cl)cc3)c2N)[C@H](O)[C@@H]1O [Compound No. 53 (1-468), 5-Amino-1-(5-amino-5-deoxy-β-D-ribofuranosyl)imidazole-4-N-[(4-chlorophenyl)methyl]carboxamide Hydrochloride]
inhibition at 5 µM ([4]; 5 μM): 34 ± 4% | inhibition at 50 µM ([4]; 50 μM): 58 ± 2% | Heart Rate (demand-induced ischemia; Baseline): 143 ± 6 beats/min | % of NON-ISCHEMIC WALL THICKENING (demand-induced ischemia; Pace # 1 (before infusion), 50 μg/kg/min IV post-pace #1): 49.5 ± 6.5% | % of NON-ISCHEMIC WALL THICKENING (demand-induced ischemia; Pace # 2): 46.7 ± 7.0% | % of NON-ISCHEMIC WALL THICKENING (demand-induced ischemia; Pace # 3): 54.2 ± 9.4 % | % of NON-ISCHEMIC WALL THICKENING (demand-induced ischemia; Pace # 4): 48.1 ± 7.6 % | % of NON-ISCHEMIC WALL THICKENING (demand-induced ischemia; Pace # 5): 47.5 ± 8.2 % | % of NON-ISCHEMIC WALL THICKENING (demand-induced ischemia; Pace # 6): 42.1 ± 7.0 % | Heart Rate, Change from Baseline (demand-induced ischemia; Post Pace Rest Period 1): 1 ± 2 beats/min | Heart Rate, Change from Baseline (demand-induced ischemia; Post Pace Rest Period 2): −2 ± 4 beats/min | Heart Rate, Change from Baseline (demand-induced ischemia; Post Pace Rest Period 3): −1 ± 3 beats/min | Heart Rate, Change from Baseline (demand-induced ischemia; Post Pace Rest Period 4): 2 ± 4 beats/min | Heart Rate, Change from Baseline (demand-induced ischemia; Post Pace Rest Period 5): 1 ± 4 beats/min | Heart Rate, Change from Baseline (demand-induced ischemia; Post Pace Rest Period 6): 2 ± 4 beats/min

EC50 [5]: 350 µM | melting point: 158 to 160 °C
Compound: Nc1c(C(=O)NC2CCCC2)ncn1C1OC(CO)C(O)C1O [Compound No. 10 (1-186), 5-Amino-1-beta-D-ribofuranosylimidazole-4-N-(cyclopentyl)carboxamide]
effect in a gerbil model of brain ischemia (brain ischemia): demonstrated protective effects

IC50 [2]: 200 µM
Compound: Nc1c(C(=O)NCc2ccccc2)ncn1[C@@H]1O[C@H](CO)[C@@H](O)[C@H]1O [Compound No. 11 (1-226), 5-Amino-1-beta-D-ribofuranosylimidazole-4-N-(benzyl)carboxamide]
effect in a gerbil model of brain ischemia (brain ischemia): demonstrated protective effects | Tissue Adenosine Levels (% Increase vs. Saline) (ischemic rat hearts; Expt 1): 53% | Tissue Adenosine Levels (% Increase vs. Saline) (ischemic rat hearts; Expt 2): 45%
